Patent publication US11147272B2, “Pyridone compounds and agricultural and horticultural fungicides comprising the same as active ingredients” (MITSUI CHEMICALS AGRO, INC., priority 2017, dated 2021)

Columns and labels:
Plasmopara viticola = test: Test Example G: Downy mildew on vine; settings: for Test G control value class: Downy mildew on vine (Neomuscat), 250 ppm spray, 2.5 ml/pot, assessed 7 to 10 days after inoculation; for Test G control value: 250 ppm drug solution sprayed (2.5 ml/pot), grape Neomuscat, 7 to 10 days after inoculation
Method: Seeds of a test plant (grape variety: Neomuscat) were planted and cultivated until three to four first leaves appeared. In the test, the inventive compounds were dissolved into dimethyl sulfoxide-methanol mixture solution (volume ratio: 9/1), and the resultant solutions were diluted with well water to a concentration of 250 ppm to obtain the drug solutions. The drug solutions were sprayed to the test plant (2.5 ml/pot). After the drug solutions dried, a zoosporangia suspension (1-2×10^4 zoosporangia/ml) of Plasmopara viticola was inoculated to the plant by spraying. After the inoculation, the plant was kept in a mist chamber at room temperature of 20° C. for about 24 hours to promote the onset of disease. The degrees of disease development were investigated 7 to 10 days after the inoculation, and the effectiveness of the drug solutions was evaluated.
In Test Examples described above, the degrees of disease development were evaluated in increments of 0.05 from 0 (as no incidence of disease) to 3 (as the degree of disease development in an untreated plant group). Further, control values were calculated using the following equation based on the degree of disease development.
n=Degree of disease development in each treated group

Phytophthora infestans = test: whole plant or invertebrate; type: in vivo; settings: for Test F control value class: Late blight on tomato, class of control value; for Test F control value: 250 ppm drug solution sprayed on test plant
Alternaia brassicicola = test: Test Example C: Alternaria sooty spot on cabbage; type: in vivo; settings: for Test C control value class: Alternaria sooty spot on cabbage, class of control value; for Test C control value: 250 ppm drug solution sprayed on test plant
From the text: Seeds of a test plant (cabbage variety: Shikidori) were planted and cultivated until the cotyledons extended.
<Control Value> Control value=100{1−(n/3)}

[1] = tested on: Colletotrichum orbiculare; test: Test Example H: Anthracnose on cucumber; settings: for Test H control value class: Anthracnose on cucumber (Sagami Hanjiro), 250 ppm spray, 2.5 ml/pot, assessed 6 to 10 days after inoculation; for Test H control value: 250 ppm drug solution sprayed (2.5 ml/pot), cucumber Sagami Hanjiro, 6 to 10 days after inoculation
[2] = tested on: Blumeria graminis f. sp. hordei; test: Test Example D: Powdery mildew on barley; settings: Powdery mildew on barley; class of control value
Magnaporthe grisea = test: whole plant or invertebrate; type: in vivo; settings: for Test A control value class: Blast on rice, class of control value; for Test A control value: 250 ppm drug solution sprayed on test plant
Puccinia recondita = test: Test Example E: Brown rust on wheat; type: in vivo; settings: for Test E control value class: Brown rust on wheat, class of control value
Botrytis cinerea = test: Test Example B: Gray mold on tomato; settings: for Test B control value class: Gray mold on tomato, class of control value
[3] = 250 ppm drug solution sprayed on test plant

Compound | Test G control value class (Plasmopara viticola) | Test F control value class (Phytophthora infestans) | Test C control value class (Alternaia brassicicola) | Test H control value class [1] | Test D control value class [2] | Test A control value class (Magnaporthe grisea) | Test E control value class (Puccinia recondita) | Test B control value class (Botrytis cinerea) | Test G control value (Plasmopara viticola) | Test F control value (Phytophthora infestans) | Test C control value (Alternaia brassicicola) | Test H control value [1] | Test A control value (Magnaporthe grisea) | Test E control value (Puccinia recondita; [3]) | Test B control value (Botrytis cinerea; [3])
CCn1c(-c2c(F)cc(F)cc2F)c(C(C)(O)C(C)C)cc(Cl)c1=O (racemic) [compound 106] | H (more than 50% control value) | H (more than 50% control value) | H (more than 50% control value) | H (more than 50% control value) | H (more than 50% control value) | H (more than 50% control value) | H (more than 50% control value) | H (more than 50% control value) | – | – | – | – | – | – | –
CCn1c(-c2c(F)cc(F)cc2F)c(C(C)(OC)C(C)C)cc(Cl)c1=O (racemic) [compound 107] | H (more than 50% control value) | L (50% or less control value) | H (more than 50% control value) | H (more than 50% control value) | H (more than 50% control value) | H (more than 50% control value) | H (more than 50% control value) | H (more than 50% control value) | – | – | – | – | – | – | –
CCn1c(-c2c(F)cc(OC)cc2F)c(C(C)(O)C(C)C)cc(Cl)c1=O (racemic) [compound 108] | H (more than 50% control value) | L (50% or less control value) | H (more than 50% control value) | H (more than 50% control value) | H (more than 50% control value) | H (more than 50% control value) | H (more than 50% control value) | H (more than 50% control value) | – | – | – | – | – | – | –
CCn1c(-c2c(F)cc(OC)cc2F)c(C(C)(OC)C(C)C)cc(Cl)c1=O (racemic) [compound 110] | H (more than 50% control value) | L (50% or less control value) | H (more than 50% control value) | H (more than 50% control value) | H (more than 50% control value) | H (more than 50% control value) | H (more than 50% control value) | H (more than 50% control value) | – | – | – | – | – | – | –
CCn1c(-c2c(F)cc(F)cc2F)c(C(O)C(C)(C)C)cc(Cl)c1=O (racemic) [compound 163] | H (more than 50% control value) | L (50% or less control value) | H (more than 50% control value) | H (more than 50% control value) | H (more than 50% control value) | H (more than 50% control value) | H (more than 50% control value) | H (more than 50% control value) | – | – | – | – | – | – | –
CCn1c(-c2c(F)cc(F)cc2F)c(C(C)(CC(C)C)OC)cc(Cl)c1=O (racemic) [compound 164] | H (more than 50% control value) | L (50% or less control value) | H (more than 50% control value) | L (50% or less control value) | H (more than 50% control value) | H (more than 50% control value) | H (more than 50% control value) | H (more than 50% control value) | – | – | – | – | – | – | –
CCn1c(-c2c(F)cc(OC)cc2F)c(C(C)(CC(C)C)OC)cc(Cl)c1=O (racemic) [compound 165] | H (more than 50% control value) | L (50% or less control value) | H (more than 50% control value) | H (more than 50% control value) | H (more than 50% control value) | H (more than 50% control value) | H (more than 50% control value) | H (more than 50% control value) | – | – | – | – | – | – | –
CCn1c(-c2c(F)cc(F)cc2F)c(C(C)(F)C(C)C)cc(Cl)c1=O (racemic) [compound 166] | H (more than 50% control value) | H (more than 50% control value) | H (more than 50% control value) | H (more than 50% control value) | H (more than 50% control value) | H (more than 50% control value) | H (more than 50% control value) | H (more than 50% control value) | – | – | – | – | – | – | –
CCn1c(-c2c(F)cc(OC)cc2F)c(C(C)(F)C(C)C)cc(Cl)c1=O (racemic) [compound 167] | H (more than 50% control value) | H (more than 50% control value) | H (more than 50% control value) | H (more than 50% control value) | H (more than 50% control value) | H (more than 50% control value) | H (more than 50% control value) | H (more than 50% control value) | – | – | – | – | – | – | –
CCn1c(-c2c(F)cc(F)cc2F)c(C(OC)C(C)(C)C)cc(Cl)c1=O (racemic) [compound 168] | L (50% or less control value) | L (50% or less control value) | H (more than 50% control value) | L (50% or less control value) | H (more than 50% control value) | H (more than 50% control value) | H (more than 50% control value) | H (more than 50% control value) | – | – | – | – | – | – | –
CCn1c(-c2c(F)cc(OC)cc2F)c(C(OC)C(C)(C)C)cc(Cl)c1=O (racemic) [compound 170] | H (more than 50% control value) | H (more than 50% control value) | H (more than 50% control value) | H (more than 50% control value) | H (more than 50% control value) | H (more than 50% control value) | H (more than 50% control value) | H (more than 50% control value) | – | – | – | – | – | – | –
CCCc1ccc(=O)n(C)c1-c1ccc(OC)cc1C [compound 425] | – | – | – | – | – | – | – | – | L (50% or less control value) | L (50% or less control value) | L (50% or less control value) | H (more than 50% control value) | H (more than 50% control value) | – | –
C=Cc1cc(Cl)c(=O)n(CC)c1-c1c(F)cc(F)cc1F [compound 517] | – | – | – | – | – | – | – | – | H (more than 50% control value) | L (50% or less control value) | H (more than 50% control value) | H (more than 50% control value) | L (50% or less control value) | – | –
CCn1c(-c2c(F)cc(F)cc2F)c(C(C)OC)cc(Cl)c1=O (stereo not drawn) [compound 519] | – | – | – | – | – | – | – | – | H (more than 50% control value) | L (50% or less control value) | H (more than 50% control value) | H (more than 50% control value) | H (more than 50% control value) | H (more than 50% control value) | H (more than 50% control value)
